From PubChem BioAssay AID2060600 (Molecular Pharmacology Branch, DTP, NCI, 2025)

System: 996289-038-R-J1-PDC complex spheroid viability
Assay: Anticancer human tumor 996289-038-R-J1-PDC patient-derived colon adenocarcinoma cell line growth inhibition [CLK]
Details: for IC50: curve of first compound; for viability, T/C: stronger effect = lower value
Source text: A high-throughput screen of multi-cell type tumor spheroids was designed to identify active combinations of […] and targeted small molecules. Complex spheroids include a stromal component modeled by human endothelial cells (HUVEC) and fibroblasts modeled by human mesenchymal stem cells (MSCs). The concentration ranges selected for each drug and investigational agent were based upon clinically achievable concentrations if the clinical Cmax of the agent was known.
Compounds. The drugs and investigational agents: cirtuvivint (SM08502; NSC835563), CC-671 (NSC850746), vemurafenib (NSC761431), tapotoclax (NSC804041), sotorasib (NSC818433), adagrasib (NSC831453), MRTX-1133 (NSC836407), BAY2416964 (NSC825713), copanlisib (NSC816437), inavolisib (NSC800729), abemaciclib (NSC768073), osimertinib (NSC779217), entinostat (NSC756642), eltanexor (KPT-8602, NSC794443), venetoclax (NSC766270), ceralasertib (NSC777638), bortezomib (NSC756655), olaparib (NSC753686), talazoparib (NSC767125), alisertib (NSC759677), peposertib (NSC802822), gemcitabine (NSC613327), 5-fluorouracil (NSC19893), SN-38 (NSC673596), oxaliplatin (NSC266046), paclitaxel (NSC125973), and doxorubicin (NSC123127), were obtained from the National Cancer Institute (NCI) Developmental Therapeutics Program Chemical Repository. The FDA-approved anticancer drug set is available from the Developmental Therapeutics Program at https://dtp.cancer.gov/organization/dscb/obtaining/available plates.htm. […] The stock solutions were prepared in dimethyl sulfoxide (DMSO, Sigma-Aldrich, St. Louis, MO, cat. D2650), except for the platinum complexes which were prepared in saline (Quality Biological, Gaithersburg, MD, cat. 114-055-101), at 800-fold the tested concentration and stored at -70 degrees C prior to their use. All drugs and investigational agents were tested over a range starting from a high concentration at or near the clinical Cmax and decreasing in half-log increments. If the clinical Cmax for an agent had not been determined, the highest concentration tested was 10 microM.
Cell Culture. All cells were maintained in an incubator at 37 degrees C and 5% CO2 with 95% humidity. The PDC lines were cultured according to standard operating procedures established by the NCI PDMR. Briefly, all PDCs were thawed and cultured in Matrigel-coated flasks prepared with a working solution of 1X Ham's F-12 nutrient mix, without supplementation (Invitrogen, Waltham, MA, cat. 11765054), 100 U/mL penicillin-streptomycin (Invitrogen, cat. 15140122), and 2.5% Matrigel (Corning Inc., Corning, NY, cat. 354248) for the first three passages. The 947758-054-R-J2-PDC line was cultured in 6B/Colon 1A media, which includes advanced DMEM/F-12 (Thermo Fisher Scientific, cat. 12634028), 10 mM HEPES (Thermo Fisher Scientific, cat. 15630080), 1X GlutaMAX supplement (Thermo Fisher Scientific, cat. 35050061), 0.1 mg/mL primocin (InvivoGen, cat. ant-pm-2), 10% defined fetal bovine serum, heat inactivated (HyClone Laboratories Inc., cat. SH30070.03HI), 1.25 mM N-Acetyl-L-cysteine (Sigma-Aldrich, cat. A9165), 10 mM nicotinamide (Sigma-Aldrich, cat. N0636), 1X B-27 supplement (Thermo Fisher Scientific, cat. 17504044), 1X N-2 supplement (Thermo Fisher Scientific, cat. 17502048), and 10 microM Y-27632 dihydrochloride (Tocris Bioscience, cat. 1254). The 876862-298-R-J1-PDC was cultured in 6E media, which includes all 6B/Colon 1A media components plus 50% L-WRN conditioned media (ATCC, cat. CRL-3276), 50 ng/mL recombinant human EGF recombinant protein (hEGF; Thermo Fisher Scientific, cat. PHG0311), 10 ng/mL recombinant human fibroblast growth factor 10 (hGFG-10; PeproTech, cat. 100-26), 1 ng/mL recombinant human fibroblast growth factor 2 (hFGF-2; PeproTech, cat. 100-18B), and 1 µM prostaglandin E2 (PGE2; Tocris, cat. 2296). The 227483-062-R1-J1-PDC line was cultured in Panc media, containing all 6E components except hFGF-2, with the addition of 500 nM SB-431542 (Selleckchem, cat. S1067) and 10 nM gastrin (Tocris, cat. 3006). […]

[1] = second compound 0.0316 µM, first compound 0.0316 µM
[2] = second compound 0.0316 µM, first compound 0.1 µM
[3] = second compound 0.0316 µM, first compound 0.316 µM
[4] = second compound 0.0316 µM, first compound 1 µM
[5] = second compound 0.0316 µM, first compound 3.16 µM
[6] = second compound 0.0316 µM, first compound 10 µM
[7] = second compound 0.1 µM, first compound 0.0316 µM
[8] = second compound 0.1 µM, first compound 0.1 µM
[9] = second compound 0.1 µM, first compound 0.316 µM
[10] = second compound 0.1 µM, first compound 1 µM
[11] = second compound 0.1 µM, first compound 3.16 µM
[12] = second compound 0.1 µM, first compound 10 µM
[13] = second compound 0.316 µM, first compound 0.0316 µM
[14] = second compound 0.316 µM, first compound 0.1 µM
[15] = second compound 0.316 µM, first compound 0.316 µM
[16] = second compound 0.316 µM, first compound 1 µM
[17] = second compound 0.316 µM, first compound 3.16 µM
[18] = second compound 0.316 µM, first compound 10 µM
[19] = second compound 1 µM, first compound 0.0316 µM
[20] = second compound 1 µM, first compound 0.1 µM
[21] = second compound 1 µM, first compound 0.316 µM
[22] = second compound 1 µM, first compound 1 µM
[23] = second compound 1 µM, first compound 3.16 µM
[24] = second compound 1 µM, first compound 10 µM
[25] = second compound 3.16 µM, first compound 0.0316 µM
[26] = second compound 3.16 µM, first compound 0.1 µM
[27] = second compound 3.16 µM, first compound 0.316 µM
[28] = second compound 3.16 µM, first compound 1 µM
[29] = second compound 3.16 µM, first compound 3.16 µM
[30] = second compound 3.16 µM, first compound 10 µM
[31] = second compound 10 µM, first compound 0.0316 µM
[32] = second compound 10 µM, first compound 0.1 µM
[33] = second compound 10 µM, first compound 0.316 µM
[34] = second compound 10 µM, first compound 1 µM
[35] = second compound 10 µM, first compound 3.16 µM
[36] = second compound 10 µM, first compound 10 µM
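Also: spheroids exposed to the agents for 7 days before readout.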

**Q.** How did the IC50 (second compound 0.0316 µM) turn out when `CCCS(=O)(=O)Nc1ccc(F)c(C(=O)c2c[nH]c3ncc(-c4ccc(Cl)cc4)cc23)c1F` + CN1CCN(c2cc(C(=O)Nc3cc4cc(-c5cnn(C)c5)ccc4cn3)ccn2)CC1 was run?
**A.** > 10000 nM

**Q.** And the IC50 (second compound 0.1 µM)?
**A.** > 10000 nM

**Q.** What about the IC50 (second compound 0.316 µM) of the same molecule?
**A.** 6170 nM

**Q.** And the IC50 (second compound 1 µM)?
**A.** < 31.6 nM

**Q.** And the IC50 (second compound 3.16 µM)?
**A.** < 31.6 nM

**Q.** What about the IC50 (second compound 10 µM) of the same molecule?
**A.** < 31.6 nM

**Q.** And the viability, T/C [1]?
**A.** 92.3%

**Q.** And the viability, T/C [2]?
**A.** 87.7%

**Q.** And the viability, T/C [3]?
**A.** 95%

**Q.** What about the viability, T/C [4] of the same molecule?
**A.** 98%

**Q.** What about the viability, T/C [5] of the same molecule?
**A.** 98.6%

**Q.** And the viability, T/C [6]?
**A.** 68.1%

**Q.** And the viability, T/C [7]?
**A.** 94.2%

**Q.** What about the viability, T/C [8] of the same molecule?
**A.** 82%

**Q.** And the viability, T/C [9]?
**A.** 90.1%

**Q.** And the viability, T/C [10]?
**A.** 92%

**Q.** And the viability, T/C [11]?
**A.** 81.3%

**Q.** What about the viability, T/C [12] of the same molecule?
**A.** 57.3%

**Q.** And the viability, T/C [13]?
**A.** 67.4%

**Q.** What about the viability, T/C [14] of the same molecule?
**A.** 70.3%

**Q.** And the viability, T/C [15]?
**A.** 70.9%

**Q.** And the viability, T/C [16]?
**A.** 76.6%

**Q.** What about the viability, T/C [17] of the same molecule?
**A.** 65.7%

**Q.** What about the viability, T/C [18] of the same molecule?
**A.** 37.9%

**Q.** What about the viability, T/C [19] of the same molecule?
**A.** 5.57%

**Q.** And the viability, T/C [20]?
**A.** 6.02%

**Q.** And the viability, T/C [21]?
**A.** 6.22%

**Q.** And the viability, T/C [22]?
**A.** 7.67%

**Q.** What about the viability, T/C [23] of the same molecule?
**A.** 5.81%

**Q.** What about the viability, T/C [24] of the same molecule?
**A.** 5.48%

**Q.** What about the viability, T/C [25] of the same molecule?
**A.** 1.49%

**Q.** What about the viability, T/C [26] of the same molecule?
**A.** 1.01%

**Q.** And the viability, T/C [27]?
**A.** 1.22%

**Q.** What about the viability, T/C [28] of the same molecule?
**A.** 1.3%

**Q.** And the viability, T/C [29]?
**A.** 2.36%

**Q.** And the viability, T/C [30]?
**A.** 1.6%

**Q.** What about the viability, T/C [31] of the same molecule?
**A.** 1.91%

**Q.** And the viability, T/C [32]?
**A.** 0.63%

**Q.** What about the viability, T/C [33] of the same molecule?
**A.** 1.71%

**Q.** And the viability, T/C [34]?
**A.** 0.77%

**Q.** And the viability, T/C [35]?
**A.** 1.81%

**Q.** What about the viability, T/C [36] of the same molecule?
**A.** 0.48%

**Q.** For `COC1C=CCC(C)C(C)S(=O)(=O)NC(=O)c2ccc3c(c2)N(CC2CCC21)CC1(CCCc2cc(Cl)ccc21)CO3` (centres undefined) + CN1CCN(c2cc(C(=O)Nc3cc4cc(-c5cnn(C)c5)ccc4cn3)ccn2)CC1, which IC50 (second compound 0.0316 µM) is on record?
**A.** 4530 nM

**Q.** And the IC50 (second compound 0.1 µM)?
**A.** 2780 nM

**Q.** What about the IC50 (second compound 0.316 µM) of the same molecule?
**A.** 1470 nM

**Q.** And the IC50 (second compound 1 µM)?
**A.** < 31.6 nM

**Q.** And the IC50 (second compound 3.16 µM)?
**A.** < 31.6 nM

**Q.** And the IC50 (second compound 10 µM)?
**A.** < 31.6 nM

**Q.** And the viability, T/C [1]?
**A.** 98.8%

**Q.** And the viability, T/C [2]?
**A.** 106%

**Q.** And the viability, T/C [3]?
**A.** 96.2%

**Q.** And the viability, T/C [4]?
**A.** 79.5%

**Q.** And the viability, T/C [5]?
**A.** 60.4%

**Q.** And the viability, T/C [6]?
**A.** 30.1%

**Q.** And the viability, T/C [7]?
**A.** 93.3%

**Q.** And the viability, T/C [8]?
**A.** 86.1%

**Q.** What about the viability, T/C [9] of the same molecule?
**A.** 78.8%

**Q.** What about the viability, T/C [10] of the same molecule?
**A.** 78%

**Q.** What about the viability, T/C [11] of the same molecule?
**A.** 45.6%

**Q.** And the viability, T/C [12]?
**A.** 27.7%

**Q.** What about the viability, T/C [13] of the same molecule?
**A.** 60.6%

**Q.** What about the viability, T/C [14] of the same molecule?
**A.** 74.7%

**Q.** What about the viability, T/C [15] of the same molecule?
**A.** 63.6%

**Q.** What about the viability, T/C [16] of the same molecule?
**A.** 53.9%

**Q.** What about the viability, T/C [17] of the same molecule?
**A.** 39.6%

**Q.** And the viability, T/C [18]?
**A.** 21%

**Q.** And the viability, T/C [19]?
**A.** 7.76%

**Q.** And the viability, T/C [20]?
**A.** 8.39%

**Q.** And the viability, T/C [21]?
**A.** 6.69%

**Q.** And the viability, T/C [22]?
**A.** 4.97%

**Q.** What about the viability, T/C [23] of the same molecule?
**A.** 4.86%

**Q.** And the viability, T/C [24]?
**A.** 2.21%

**Q.** And the viability, T/C [25]?
**A.** 1.75%

**Q.** And the viability, T/C [26]?
**A.** 0.92%

**Q.** What about the viability, T/C [27] of the same molecule?
**A.** 1.25%

**Q.** What about the viability, T/C [28] of the same molecule?
**A.** 1.45%

**Q.** And the viability, T/C [29]?
**A.** 1.53%

**Q.** And the viability, T/C [30]?
**A.** 0.93%

**Q.** And the viability, T/C [31]?
**A.** 1.98%

**Q.** What about the viability, T/C [32] of the same molecule?
**A.** 1.21%

**Q.** And the viability, T/C [33]?
**A.** 0.68%

**Q.** What about the viability, T/C [34] of the same molecule?
**A.** 0.74%

**Q.** What about the viability, T/C [35] of the same molecule?
**A.** 0.47%

**Q.** What about the viability, T/C [36] of the same molecule?
**A.** 1.7%
